Measured values: patent US9815787B2, “Sulfonamide derivative or pharmaceutically acceptable acid addition salt thereof” (UNIVERSITY OF TSUKUBA, priority 2013, dated 2017)
pEC50: −log10 of the molar value.

Molecular target: T1, OX2R (Homo sapiens, UniProt O43614)
T1 construct: expressed in transfected cells; host or cells: CHO (Chinese hamster ovary) cells constitutively expressing the OX2R gene and NFAT-luciferase (CHOOX2R)
T1 sequence (O43614 1-444): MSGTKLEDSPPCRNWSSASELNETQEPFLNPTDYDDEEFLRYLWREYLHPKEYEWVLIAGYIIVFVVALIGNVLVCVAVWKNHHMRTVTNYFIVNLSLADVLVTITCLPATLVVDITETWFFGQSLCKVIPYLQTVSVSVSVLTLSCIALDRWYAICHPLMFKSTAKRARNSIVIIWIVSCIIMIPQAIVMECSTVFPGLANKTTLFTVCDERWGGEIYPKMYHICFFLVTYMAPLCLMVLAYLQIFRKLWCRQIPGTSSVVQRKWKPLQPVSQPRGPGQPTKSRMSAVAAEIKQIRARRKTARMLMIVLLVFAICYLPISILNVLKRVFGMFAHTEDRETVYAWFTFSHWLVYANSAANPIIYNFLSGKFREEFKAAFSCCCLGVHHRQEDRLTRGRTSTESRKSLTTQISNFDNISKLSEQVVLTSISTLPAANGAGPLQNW
Assay: Evaluation of agonist activity against OX2R (CHOOX2R cells, Fura2AM fluorescence, FDSS3000)
Assay type: cell-based
Description: Evaluation of Agonist Activity Against OX2R
NFAT-luciferase gene and OX2R gene were each constitutively expressed in CHO cell, which is a cell line derived from Chinese hamster ovary to establish a cell line (CHOOX2R). The cells thereof were sown on a 96 well plate at 10000 cells/well, and cultured in a 5% FBS-added DMEM medium for 48 hr. […] After washing, HEPES buffer (75 μL) was added, a test compound solution (25 μL) was added, and changes in the fluorescence intensity were measured by FDSS3000 (Hamamatsu Photonics K.K.). The test compound was dissolved in DMSO (final concentration of DMSO was 1%), and diluted with HEPES buffer to a final concentration of 0.1 μM, 1.0 μM or 10 μM.

[1] = test compound 0.1 μM; relative to orexin-A as full agonist (100%); CHOOX2R cells
[2] = test compound 1.0 μM; relative to orexin-A as full agonist (100%); CHOOX2R cells
[3] = test compound 10 μM; relative to orexin-A as full agonist (100%); CHOOX2R cells
[4] = test compound 0.1 μM; CHOOX2R cells; relative to orexin-A as full agonist (100%)
[5] = test compound 1.0 μM; CHOOX2R cells; relative to orexin-A as full agonist (100%)
[6] = test compound 10 μM; CHOOX2R cells; relative to orexin-A as full agonist (100%)

Compound	Response (0.1 μM (%)) [1]	Response (1.0 μM (%)) [2]	Response (10 μM (%)) [3]	Response (0.1 μM (%)) [4]	Response (1.0 μM (%)) [5]	Response (10 μM (%)) [6]	pEC50 (OX2R agonist activity; CHOOX2R cells)	Emax (conversion with orexin-A as full agonist (maximum agonist activity 100%))
COc1ccc(-c2ccccc2F)cc1S(=O)(=O)Nc1cccc(NCCNC(=O)c2ccccc2O)c1 [Example 6, N-(2-((3-(2′-fluoro-4-methoxy-[1,1′-biphenyl]-3-ylsulfonamide)phenyl)amino)ethyl)-2-hydroxybenzamide]	<5%	<5%	7%					
COc1ccccc1C(=O)NCCNc1cccc(NS(=O)(=O)c2cc(-c3cccc(C(=O)N(C)C)c3)ccc2C)c1 [Example 106, 3′-(N-(3-((2-(2-methoxybenzamido)ethyl)amino)phenyl)sulfamoyl)-N,N,4′-trimethyl-[1,1′-biphenyl]-3-carboxamide]	<5%	27%	39%					
COc1cccc(C(=O)NCCNc2cccc(NS(=O)(=O)c3cc(-c4ccccc4C)ccc3OC)c2)c1 [Example 21, 3-methoxy-N-(2-((3-(4-methoxy-2′-methyl-[1,1′-biphenyl]-3-ylsulfonamide)phenyl)amino)ethyl)benzamide]	<5%	<5%	11%					
COc1ccccc1C(=O)NCCNc1cccc(NS(=O)(=O)c2cc(-c3ccccc3Cl)ccc2OC)c1 [Example 10, N-(2-((3-(2′-chloro-4-methoxy-[1,1′-biphenyl]-3-ylsulfonamide)phenyl)amino)ethyl)-2-methoxybenzamide]	<5%	<5%	41%					
COc1ccccc1C(=O)NCCNc1cccc(NS(=O)(=O)c2cc(-c3ccccc3F)ccc2OC)c1 [Example 1, N-(2-((3-(2′-fluoro-4-methoxy-[1,1′-biphenyl]-3-ylsulfonamide)phenyl)amino)ethyl)-2-methoxybenzamide]	<5%	21%	57%					
COc1cccc(C(=O)NCCNc2cccc(NS(=O)(=O)c3cc(-c4cc(Cl)ccc4Cl)ccc3OC)c2)c1 [Example 26, N-(2-((3-(2′,5′-dichloro-4-methoxy-[1,1′-biphenyl]-3-ylsulfonamide)phenyl)amino)ethyl)-3-methoxybenzamide]	<5%	5%	29%					
COc1cncc(-c2ccc(OC)c(S(=O)(=O)Nc3cccc(NCCNC(=O)c4ccccc4OC)c3)c2)c1 [Example 97, 2-methoxy-N-(2-((3-(2-methoxy-5-(5-methoxypyridin-3-yl)phenylsulfonamido)phenyl)amino)ethyl)benzamide]				<5%	12%	37%		
COc1ccccc1C(=O)NCCNc1cccc(NS(=O)(=O)c2cc(-c3cc(Cl)ccc3Cl)ccc2OC)c1 [Example 25, N-(2-((3-(2′,5′-dichloro-4-methoxy-[1,1′-biphenyl]-3-ylsulfonamide)phenyl)amino)ethyl)-2-methoxybenzamide]	<5%	7%	38%					
COc1ccccc1C(=O)NCCNc1cccc(NS(=O)(=O)c2cc(-c3c(F)cccc3F)ccc2OC)c1 [Example 17, N-(2-((3-(2′,6′-difluoro-4-methoxy-[1,1′-biphenyl]-3-ylsulfonamide)phenyl)amino)ethyl)-2-methoxybenzamide]	<5%	18%	182%					
COc1ccc(C(=O)NCCNc2cccc(NS(=O)(=O)c3cc(-c4ccccc4F)ccc3OC)c2)cc1 [Example 3, N-(2-((3-(2′-fluoro-4-methoxy-[1,1′-biphenyl]-3-ylsulfonamide)phenyl)amino)ethyl)-4-methoxybenzamide]	<5%	11%	50%					
COc1ccccc1C(=O)NCCNc1cccc(NS(=O)(=O)c2cc(-c3cccc(NCC(C)C)c3)ccc2OC)c1 [Example 38, N-(2-((3-(3′-(isobutylamino)-4-methoxy-[1,1′-biphenyl]-3-ylsulfonamide)phenyl)amino)ethyl)-2-methoxybenzamide]				8%	37%	113%		
COc1cccc(C(=O)NCCNc2cccc(NS(=O)(=O)c3cc(-c4cccc(C(=O)N5CCCC5)c4)ccc3OC)c2)c1 [Example 86, 3-methoxy-N-(2-((3-(4-methoxy-3′-(pyrrolidine-1-carbonyl)-[1,1′-biphenyl]-3-ylsulfonamido)phenyl)amino)ethyl)benzamide]				10%	89%	81%		
COc1ccc(-c2cccc(C(=O)N(C)C)c2)cc1S(=O)(=O)Nc1cccc(NCCNC(=O)c2ccoc2C)c1 [Example 67, N-(2-((3-(3′-(dimethylcarbamoyl)-4-methoxy-[1,1′-biphenyl]-3-ylsulfonamido)phenyl)amino)ethyl)-2-methylfuran-3-carboxamide]				55%	96%	76%		
COc1ccc(-c2ccccc2F)cc1S(=O)(=O)Nc1cccc(NCCNC(=O)c2cccc(Cl)c2)c1 [Example 8, 3-chloro-N-(2-((3-(2′-fluoro-4-methoxy-[1,1′-biphenyl]-3-ylsulfonamide)phenyl)amino)ethyl)benzamide]	<5%	9%	46%					
COc1ccc(-c2cccc(C(=O)N3CCC3)c2)cc1S(=O)(=O)Nc1cccc(NCCNC(=O)c2c(OC)cccc2OC)c1 [Example 85, N-(2-((3-(3′-(azetidine-1-carbonyl)-4-methoxy-[1,1′-biphenyl]-3-ylsulfonamido)phenyl)amino)ethyl)-2,6-dimethoxybenzamide]				19%	90%	90%		
COc1ccc(-c2cccc(C(=O)N(C)C)c2)cc1S(=O)(=O)Nc1cccc(NCCNC(=O)c2cn(C)cn2)c1 [Example 64, N-(2-((3-(3′-(dimethylcarbamoyl)-4-methoxy-[1,1′-biphenyl]-3-ylsulfonamido)phenyl)amino)ethyl)-1-methyl-1H-imidazole-4-carboxamide]				<5%	68%	72%		
COc1ccccc1C(=O)NCCNc1cccc(NS(=O)(=O)c2cc(-c3ccccc3C(=O)N(C)C)ccc2OC)c1 [Example 79, 4′-methoxy-3′-(N-(3-((2-(2-methoxybenzamido)ethyl)amino)phenyl)sulfamoyl)-N,N-dimethyl-[1,1′-biphenyl]-2-carboxamide]				<5%	18%	34%		
COc1ccccc1C(=O)NCCNc1cccc(NS(=O)(=O)c2cc(-c3cc(F)ccc3F)ccc2OC)c1 [Example 19, N-(2-((3-(2′,5′-difluoro-4-methoxy-[1,1′-biphenyl]-3-ylsulfonamide)phenyl)amino)ethyl)-2-methoxybenzamide]	<5%	8%	143%					
COc1cccc(C(=O)NCCNc2cccc(NS(=O)(=O)c3cc(-c4ccccc4Cl)ccc3OC)c2)c1 [Example 11, N-(2-((3-(2′-chloro-4-methoxy-[1,1′-biphenyl]-3-ylsulfonamide)phenyl)amino)ethyl)-3-methoxybenzamide]	<5%	17%	23%					
COc1ccc(-c2cccc(C(=O)N(C)C)c2)cc1S(=O)(=O)Nc1cccc(NCCNC(=O)c2ccccc2C)c1 [Example 65, 4′-methoxy-N,N-dimethyl-3′-(N-(3-((2-(2-methylbenzamido)ethyl)amino)phenyl)sulfamoyl)-[1,1′-biphenyl]-3-carboxamide]				74%	96%	74%	6.10	85%
COc1cccc(C(=O)NCCNc2cccc(NS(=O)(=O)c3cc(-c4cccc(OC)n4)ccc3OC)c2)c1 [Example 95, 3-methoxy-N-(2-((3-(2-methoxy-5-(6-methoxypyridin-2-yl)phenylsulfonamido)phenyl)amino)ethyl)benzamide]				<5%	<5%	30%		
COc1ccc(-c2ccccc2F)cc1S(=O)(=O)Nc1cccc(NCCNC(=O)c2ccccn2)c1 [Example 14, N-(2-((3-(2′-fluoro-4-methoxy-[1,1′-biphenyl]-3-ylsulfonamide)phenyl)amino)ethyl)picolinamide]	<5%	<5%	8%					
